Where “and” joins values, the source holds several entries; their conditions need not be identical. Equal values may be shown once. Entries after “also recorded” stand apart in the source; their conditions may differ. Read-outs that look alike come from different tables or passages of the source.
Test: Plasma kinetics in rat following intravenous and oral administration;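 on AUC0-∞: parameter is AUC from zero to infinity in ng·h/mL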
Assay type: in vivo, Sprague Dawley rats
Protocol: This study determined the intravenous pharmacokinetics and oral bioavailability of compound 1 of the invention (see FIG. 1A, structure no. 1), compound 2 of the invention (see FIG. 1D, structure no. 19) and compound 3 of the invention (see FIG. 1I, structure no. 53) following administration to Sprague Dawley rats at a dose level of 10 mg/kg.
Six groups of 3 male rats received either a single intravenous or single oral administration of compound 1, 2 or 3 of the invention at a dose level of 10 mg/kg. Blood samples were obtained at various times after dosing. Plasma samples were analysed for unchanged test item using a suitable LC-MS/MS method. Pharmacokinetic parameters were estimated from individual plasma concentrations.
Eighteen male rats each received either a single intravenous or a single oral administration of either compound 1, 2 or 3 at a dose level of 10 mg/kg. The formulation was orally administered to each animal by gastric gavage and intravenously administered to each animal via a tail vein. The dose was administered at a dose volume of 5 mL/kg. The formulations were administered to each animal according to the details in the following table:
Blood samples (ca 0.3 mL) were removed from the femoral vein of each animal into tubes containing lithium heparin as anticoagulant.
Blood samples were collected from 3 rats at the following times after dose administration: • 3, 6, 15, 45 min and 1.5, 2.5, 4, 6, 8, 24 h post dose. Oral Administration
Blood samples were collected from 3 rats at the following times after dose administration: • 5, 15, 45 min and 1.5, 2.5, 4, 6, 8, 24 h post dose. Processing of Blood Samples
Pharmacokinetic parameters of compound 1, 2 and 3 were derived by non-compartmental analysis using WinNonLin Pro version 5.0.1 (Pharsight 2005). The following parameters were derived, where appropriate, from the individual plasma concentration versus time profiles:
• F % The absolute oral bioavailability calculated as [AUC0-t (oral)*Dose(iv)/AUC0-t (iv)*Dose (oral)]*100 based on mean values derived after oral and intravenous administration Consideration was given to the estimation of λz and corresponding t1/2 values. Three or more points are required within the terminal phase for λz and t1/2 to be estimated. The following additional variables were tabulated to aid identification of potentially unreliable estimates of t1/2 and AUC:
Pharmacokinetic parameters were reported as geometric mean except Tmax which was reported as the median. Geometric coefficient of variation was calculated as: […]
Actual sampling times were used for all calculations of pharmacokinetic parameters. Plasma concentrations that were below the limit of quantification were taken as zero for the pharmacokinetic analysis.

[1] = intravenous 10 mg/kg, male rats, individual animals, acetate, 10 mg/kg
[2] = male, Sprague Dawley, rat, plasma, iv, 10 mg/kg, single intravenous 10 mg/kg, male rats, individual animals, read-out: Sample Concentration in plasma
[3] = male, Sprague Dawley, rat, plasma, iv, 10 mg/kg, single intravenous 10 mg/kg, male rats, mean of 3, read-out: Mean Concentration in plasma

In the case of `N=C(N)NN=CC=Cc1cccn1-c1ccc(Cl)cc1` [Compound 1, [1-(4-chlorophenyl)-1H-pyrrol-2-yl-allylideneamino]guanidinium acetate], the bioavailability (Sprague Dawley, rat, plasma, 10 mg/kg oral vs intravenous, male rats, from mean AUC0-t, read-out: Mean absolute oral bioavailability) is reported as 34.8%, the “Between-animal variability in systemic exposure, coefficient of variation (CV) of AUC0-t” value (intravenous 10 mg/kg, male rats) is reported as “less than 20%” and the “AUC0-∞” value [1] is reported as 3755 ng·h/mL and 3394 ng·h/mL. For the same compound, the AUC(0-t) [1] was 3662 ng·h/mL and 3262 ng·h/mL, the C0 [1] was 5834 ng/mL and 2729 ng/mL and the CL [1] was 45.15 mL/min/kg and 49.85 mL/min/kg. The MRT [1] was 5.76 h, the Vss [1] was 15.606 L/kg and 19.225 L/kg and the t1/2 [1] was 4.87 h and 5.44 h. The “Systemic clearance (in words)” value (intravenous 10 mg/kg, rats) was “moderate”, the “volume of distribution compared with total body water (in words)” value (intravenous 10 mg/kg, rats, total body water 668 mL/kg, acetate, 10 mg/kg) was “exceeded the total body water; also recorded: markedly greater than that of the total body water” and the “systemic plasma clearance (CL) as share of hepatic blood flow in rats” value (intravenous 10 mg/kg, hepatic blood flow 3312 mL/h/kg) was “approximately 82%”. It also gave an AUC(0-inf) (male, Sprague Dawley, rat, plasma, iv, 10 mg/kg, intravenous 10 mg/kg, male rats, Arithmetic Mean) of 3780 ng·h/mL, an AUC(0-t) (male, Sprague Dawley, rat, plasma, iv, 10 mg/kg, intravenous 10 mg/kg, male rats, Arithmetic Mean, read-out: AUC0-t) of 3600 ng·h/mL and a C0 (male, Sprague Dawley, rat, plasma, iv, 10 mg/kg, intravenous 10 mg/kg, male rats, Arithmetic Mean, read-out: C0) of 4210 ng/mL. It also gave a clearance (male, Sprague Dawley, rat, plasma, iv, 10 mg/kg, intravenous 10 mg/kg, male rats, Arithmetic Mean, read-out: CL (converted)) of 45.3 mL/min/kg, an MRT (male, Sprague Dawley, rat, plasma, iv, 10 mg/kg, intravenous 10 mg/kg, male rats, Arithmetic Mean, read-out: MRT) of 6.5 h and a Vd (male, Sprague Dawley, rat, plasma, iv, 10 mg/kg, intravenous 10 mg/kg, male rats, Arithmetic Mean, read-out: Vss) of 17.6 L/kg. For the same compound, the half-life (male, Sprague Dawley, rat, plasma, iv, 10 mg/kg, intravenous 10 mg/kg, male rats, Arithmetic Mean, read-out: t1/2 (converted)) was 5.77 h, the AUC(0-inf) (male, Sprague Dawley, rat, plasma, iv, 10 mg/kg, intravenous 10 mg/kg, male rats, Geometric mean) was 3760 ng·h/mL and the AUC(0-t) (male, Sprague Dawley, rat, plasma, iv, 10 mg/kg, intravenous 10 mg/kg, male rats, Geometric mean, read-out: AUC0-t) was 3590 ng·h/mL. For the same compound, the C0 (male, Sprague Dawley, rat, plasma, iv, 10 mg/kg, intravenous 10 mg/kg, male rats, Geometric mean, read-out: C0) was 4020 ng/mL, the clearance (male, Sprague Dawley, rat, plasma, iv, 10 mg/kg, intravenous 10 mg/kg, male rats, Geometric mean, read-out: CL (systemic plasma clearance) (converted)) was 45.1 mL/min/kg and the MRT (male, Sprague Dawley, rat, plasma, iv, 10 mg/kg, intravenous 10 mg/kg, male rats, Geometric mean, read-out: MRT) was 6.47 h. For the same compound, the Vd (male, Sprague Dawley, rat, plasma, iv, 10 mg/kg, intravenous 10 mg/kg, male rats, Geometric mean, read-out: Vss (mean apparent volume of distribution)) was 17.5 L/kg, the half-life (male, Sprague Dawley, rat, plasma, iv, 10 mg/kg, intravenous 10 mg/kg, male rats, Geometric mean, read-out: t1/2 (mean apparent terminal half-life) (converted)) was 5.7 h and the AUC(0-inf) (male, Sprague Dawley, rat, plasma, iv, 10 mg/kg, intravenous 10 mg/kg, male rats, Median) was 3760 ng·h/mL. For the same compound, the AUC(0-t) (male, Sprague Dawley, rat, plasma, iv, 10 mg/kg, intravenous 10 mg/kg, male rats, Median, read-out: AUC0-t) was 3660 ng·h/mL, the C0 (male, Sprague Dawley, rat, plasma, iv, 10 mg/kg, intravenous 10 mg/kg, male rats, Median, read-out: C0) was 4070 ng/mL and the clearance (male, Sprague Dawley, rat, plasma, iv, 10 mg/kg, intravenous 10 mg/kg, male rats, Median, read-out: CL (converted)) was 45.1 mL/min/kg. For the same compound, the MRT (male, Sprague Dawley, rat, plasma, iv, 10 mg/kg, intravenous 10 mg/kg, male rats, Median, read-out: MRT) was 6.43 h, the Vd (male, Sprague Dawley, rat, plasma, iv, 10 mg/kg, intravenous 10 mg/kg, male rats, Median, read-out: Vss) was 17.9 L/kg and the half-life (male, Sprague Dawley, rat, plasma, iv, 10 mg/kg, intravenous 10 mg/kg, male rats, Median, read-out: t1/2 (converted)) was 5.44 h. The AUC(0-inf) (male, Sprague Dawley, rat, plasma, iv, 10 mg/kg, intravenous 10 mg/kg, male rats, individual animals) was 4180 ng·h/mL, the AUC(0-t) (male, Sprague Dawley, rat, plasma, iv, 10 mg/kg, intravenous 10 mg/kg, male rats, individual animals, read-out: AUC0-t) was 3870 ng·h/mL and the clearance (male, Sprague Dawley, rat, plasma, iv, 10 mg/kg, intravenous 10 mg/kg, male rats, individual animals, read-out: CL (converted)) was 40.9 mL/min/kg. The MRT (male, Sprague Dawley, rat, plasma, iv, 10 mg/kg, intravenous 10 mg/kg, male rats, individual animals, read-out: MRT) was 7.31 h, the Vd (male, Sprague Dawley, rat, plasma, iv, 10 mg/kg, intravenous 10 mg/kg, male rats, individual animals, read-out: Vss) was 17.9 L/kg and the half-life (male, Sprague Dawley, rat, plasma, iv, 10 mg/kg, intravenous 10 mg/kg, male rats, individual animals, read-out: t1/2 (converted)) was 7 h. The concentration at 0.05 h (male, Sprague Dawley, rat, plasma, iv, 10 mg/kg, single intravenous 10 mg/kg, male rats, 0.05 h (3 min), mean of 3, read-out: Mean Concentration in plasma) was 2250 ng/mL, the concentration at 0.1 h [2] was 941 ng/mL and the concentration at 0.1 h [3] was 1120 ng/mL. The concentration at 0.25 h [2] was 589 ng/mL, the concentration at 0.25 h [3] was 705 ng/mL and the concentration at 0.75 h [2] was 441 ng/mL. For the same compound, the concentration at 0.75 h [3] was 392 ng/mL, the concentration at 1.5 h [2] was 347 ng/mL and the concentration at 1.5 h [3] was 308 ng/mL. The concentration at 2.5 h [2] was 239 ng/mL, the concentration at 2.5 h [3] was 233 ng/mL and the concentration at 4 h [2] was 317 ng/mL. It also gave a concentration at 4 h [3] of 254 ng/mL, a concentration at 6 h [2] of 140 ng/mL and a concentration at 6 h [3] of 160 ng/mL. The concentration at 8 h (male, Sprague Dawley, rat, plasma, iv, 10 mg/kg, single intravenous 10 mg/kg, male rats, 8 h, mean, read-out: Mean Concentration in plasma) was 97 ng/mL, the concentration at 24 h (male, Sprague Dawley, rat, plasma, iv, 10 mg/kg, single intravenous 10 mg/kg, male rats, 24 h, mean, read-out: Mean Concentration in plasma) was 20.2 ng/mL and the AUC(0-t) (male, Sprague Dawley, rat, plasma, po, 10 mg/kg, oral 10 mg/kg, male rats, Arithmetic Mean, read-out: AUC0-t) was 1350 ng·h/mL.
